Reference: PMC5513444, “The synthesis and evaluation of triazolopyrimidines as anti-tubercular agents” (Bioorganic & Medicinal Chemistry, 2017)
≈ marks a conversion by molar mass, not a printed value.

Tests used:
M. tuberculosis H37Rv = assay: MIC90 against M. tuberculosis in liquid medium; assay type: cell-based, Mycobacterium tuberculosis; conditions: liquid medium 7H9-Tw-OADC, aerobic, 5 days, average ± SD of two independent experiments; for MIC90: Mycobacterium tuberculosis, H37RV, 120 h, read-out: MIC (MIC90, minimum concentration required to inhibit growth of M. tuberculosis by 90%)
HepG2 cells = assay: Cytotoxicity against HepG2 cell line (CellTiter-Glo); assay type: cell-based; conditions: for Selectivity index (SI) = IC50/MIC90: HepG2 IC50 / M. tuberculosis MIC90; for IC50: Homo sapiens, 48 h, HepG2, 2 days incubation, read-out: IC50 (concentration required to reduce the viability of HepG2 cells by 50%)

Row | SMILES | MIC90 (M. tuberculosis H37Rv) | MIC (MIC90, minimum concentration required to inhibit growth of M. tuberculosis by 90%) (M. tuberculosis H37Rv) | Selectivity index (SI) = IC50/MIC90 (HepG2 cells) | IC50 (HepG2 cells) | melting point
1 | COc1ccc(CCNc2cc(-c3ccccc3)nc3ncnn23)cc1 [Compound 1, N-(4-methoxyphenethyl)-5-phenyl-[1,2,4]triazolo[1,5-a]pyrimidin-7-amine] | 3.1 µM (≈ 1.07 µg/mL) | 3.1 ± 1.3 µM | >32 | > 100 µM | 
2 | COc1ccc(CCNc2cc(-c3ccc(OC)cc3)nc3ncnn23)cc1 [Compound 7, N-(4-Methoxyphenethyl)-5-(4-methoxyphenyl)-[1,2,4]triazolo[1,5-a]pyrimidin-7-amine] | > 20 µM |  |  | > 100 µM | 130 to 131 °C
3 | COc1ccc(CCNc2cc(-c3ccccc3OC)nc3ncnn23)cc1 [Compound 8, N-(4-Methoxyphenethyl)-5-(2-methoxyphenyl)-[1,2,4]triazolo[1,5-a]pyrimidin-7-amine] | > 20 µM |  |  | 87 µM | 148 to 149 °C
4 | COc1ccc(CCNc2cc(-c3ccc(C)cc3)nc3ncnn23)cc1 [Compound 9, N-(4-Methoxyphenethyl)-5-(p-tolyl)-[1,2,4]triazolo[1,5-a]pyrimidin-7-amine] | > 20 µM |  |  | 37 µM | 155 to 156 °C
5 | CCc1ccc(-c2cc(NCCc3ccc(OC)cc3)n3ncnc3n2)cc1 [Compound 10, 5-(4-Ethylphenyl)-N-(4-methoxyphenethyl)-[1,2,4]triazolo[1,5-a]pyrimidin-7-amine] | > 20 µM |  |  | > 100 µM | 
6 | COc1ccc(CCNc2cc(-c3ccc(Cl)cc3)nc3ncnn23)cc1 [Compound 11, 5-(4-Chlorophenyl)-N-(4-methoxyphenethyl)-[1,2,4]triazolo[1,5-a]pyrimidin-7-amine] | > 20 µM |  |  | 65 µM | 178 to 180 °C
7 | COc1ccc(CCNc2cc(-c3ccccc3Cl)nc3ncnn23)cc1 [Compound 12, 5-(2-Chlorophenyl)-N-(4-methoxyphenethyl)-[1,2,4]triazolo[1,5-a]pyrimidin-7-amine] | > 20 µM |  |  | > 100 µM | 
8 | COc1ccc(CCNc2cc(-c3ccc(F)cc3)nc3ncnn23)cc1 [Compound 13, 5-(4-Fluorophenyl)-N-(4-methoxyphenethyl)-[1,2,4]triazolo[1,5-a]pyrimidin-7-amine] | 4.4 ± 2 µM (≈ 1.6 µg/mL) |  |  | 89 µM | 153 to 155 °C
9 | COc1ccc(CCNc2cc(-c3ccccc3F)nc3ncnn23)cc1 [Compound 14, 5-(2-Fluorophenyl)-N-(4-methoxyphenethyl)-[1,2,4]triazolo[1,5-a]pyrimidin-7-amine] | 3 ± 0.21 µM (≈ 1.09 µg/mL) |  | >30 | > 100 µM | 153 to 155 °C
10 | COc1ccc(CCNc2cc(C3CC3)nc3ncnn23)cc1 [Compound 22] | 5.8 ± 1.6 µM (≈ 1.79 µg/mL) |  | >17 | > 100 µM | 
11 | FC(F)(F)c1ccc(CCNc2cc(-c3ccccn3)nc3ncnn23)cc1 [Compound 58, 5-(Pyridin-2-yl)-N-(4-(trifluoromethyl)phenethyl)-[1,2,4]triazolo[1,5-a]pyrimidin-7-amine] | 0.98 ± 0.4 µM (≈ 0.377 µg/mL) |  | >119 | > 100 µM | 
12 | Clc1ccc(CCNc2cc(-c3ccccn3)nc3ncnn23)cc1 [Compound 60, N-(4-Chlorophenethyl)-5-(pyridin-2-yl)-[1,2,4]triazolo[1,5-a]pyrimidin-7-amine] | 0.76 ± 0.25 µM (≈ 0.267 µg/mL) |  | >135 | > 100 µM | 
13 | COc1ccc(C2CCCN(c3cc(-c4ccccn4)nc4ncnn34)C2)cc1 (stereo not shown) [Compound 63, 7-(3-(4-Methoxyphenyl)piperidin-1-yl)-5-(pyridin-2-yl)-[1,2,4]triazolo[1,5-a]pyrimidine] | > 20 µM |  |  | 16 µM | 
14 | COc1ccc(C2CN(c3cc(-c4ccccn4)nc4ncnn34)CCO2)cc1 (stereo not shown) [Compound 64, 2-(4-Methoxyphenyl)-4-(5-(pyridin-2-yl)-[1,2,4]triazolo[1,5-a]pyrimidin-7-yl)morpholine] | > 20 µM |  |  | 50 µM | 
